Reference: patent US20230096897A1, “Lymphocyte Population and Methods for Producing Same” (AVM Biotechnology, LLC, priority 2020, published 2023)
Entries after “also recorded” stand apart in the source; their conditions may differ. Where two headings read alike, the source gives them in different places.

Experiments:
[1] = tested on: A20 B cell lymphoma; experiment: A20 B-cell lymphoma models, summary of studies; type: in vivo, mouse
Text: The mouse A20 lymphoma model is a very aggressive tumor model because it employs multiple direct (expression of immunoinhibitory molecule PD-L1, IDO, and IL-10, and lack of expression of CD80 costimulatory molecule) and indirect (downregulation of APC function and induction of Treg cells) immune evasion mechanisms. In addition, in the studies described in the following, AVM0703 was not dosed until A20 tumors were very well-established, at between ˜120 to 400 mm^3 in volume.
Male BALB/c mice were inoculated subcutaneously in the flank with A20 B lymphoma cells embedded in Matrigel. Tumor volumes were monitored by caliper measurements, and when the tumors were well established at about 150 mm^3, or very well established for study “AVM_CANMOD_05” at about 400 mm^3, mice were treated with AVM0703 at HED doses of 7, 18, 22, or 25 mg/kg. Endpoint is typically defined as tumor volume of 1500 mm^3.
These mice were pooled and a contingency table analysis was performed using Fisher's exact test.

[2] = tested on: A20 B cell lymphoma; experiment: A20 lymphoma study AVM_CANMOD_01 (repeat dosing); type: in vivo, mouse
[3] = tested on: A20 B cell lymphoma; experiment: A20 lymphoma study AVM_CANMOD_03 (dose response); type: in vivo, mouse
Description: In a second study (“AVM_CANMOD_03”), BALB/c mice (n=5 per group) were dosed with increasing concentrations of AVM0703 HED DP (7, 18, and 26 mg/kg) on Days 9, 16, 24, and 31 after tumor inoculation. Treatment started when the tumors were approximately […], as opposed to well-established tumors of 150 mm^3 as in study AVM_CANMOD_01.
Based on evidence of pseudogrowth in tumors from AVM0703-treated mice in study AVM_CANMOD_01, tumors (n=2 per group) were sent to HistoTox Labs for slicing and immunohistochemistry. Hematoxylin and eosin stains identified several regions of necrosis and the slides were scored from 0 to 5 depending on severity.

[4] = tested on: A20 B cell lymphoma; experiment: A20 lymphoma study AVM_CANMOD_05, endpoint analysis subset; type: in vivo, mouse
[5] = tested on: female NOD mice; experiment: Prevention or delay of hyperglycemia in spontaneously diabetic female NOD mice; type: in vivo, mouse; details: for First Onset of hyperglycemia (weeks of age): dosing from 10 weeks of age, AVM0703 single oral HED 18 or 30 mg/kg, cyclosporine 5 then 10 mg/kg twice weekly, venetoclax 25 mg/kg; for % Hyperglycemic at 22 wks of age / Median Time to diabetes (days after 10 wks of age): same groups
Description: Female NOD mice were ordered at 9 weeks of age.
Body weights and blood glucose levels were monitored weekly. Body condition was monitored three times per week. Oral glucose tolerance was determined in all surviving mice who reached 30 weeks of age. Remaining mice were necropsied and autoreactive lymphocytes in the pancreas and adjacent lymph nodes were determined by flow cytometry. Pancreatitis was determined by H&E staining (8 out of 15 per group). Pancreatic Beta cell surface area was measured by staining for insulin. […] Pancreas and pancreas lymph nodes were examined for autoreactive, insulin-specific CD4+ T cells by using a magnetic enrichment method together with tetramer reagents.

[6] = tested on: female NOD mice; experiment: Reversal of early onset and established diabetes in female NOD mice; details: mouse, in vivo
Description: Female NOD mice are ordered at 9 weeks of age. Blood glucose levels are measured weekly starting at 10 weeks of age. Once a mouse has non-fasting blood glucose above 250 mg/dl, another measure is taken the following day.
For reversal of new-onset diabetes AVM0703 dosing is started one day after a mouse has had two consecutive days of elevated non-fasting blood glucose levels. Insulin pellets are implanted subcutaneously on the second day of elevated blood glucose levels. For reversal of established diabetes, two consecutive weeks of elevated blood glucose are measured, insulin pellets are implanted on day 8 after the first day of measured elevated blood glucose levels and AVM0703 is dosed on day 14 after the first day of measured elevated blood glucose levels.

[7] = tested on: A20 B cell lymphoma; experiment: A20 lymphoma study AVM_CANMOD_05, lymphodepletion subset
[8] = tested on: CCRF-CEM human T cell lymphoma; experiment: CCRF-CEM human T cell lymphoma xenograft in NCr nude mice (AVM_CANMOD_06)
Description: A pilot study (“AVM_CANMOD_06”) was performed to investigate anti-tumor efficacy of AVM0703 in a human T cell lymphoma model, CCRF-CEM.
Tumor volume was assessed 3 times per week and endpoint was defined as either a tumor volume greater than 1500 mm^3 or greater than a 20% loss from initial body weight measurement.

[9] = tested on: CD3high, CD45dim, CD49b+ cells; experiment: Venetoclax pre-treatment before high dose DSP in female NOD mice; type: in vivo, mouse; details: 48 hours
Description: Female NOD mice of 10 weeks of age are treated with 12.5 mg/kg up to 50 mg/kg venetoclax 6-18 hours before oral gavage of a HED 30 mg/kg DSP dose. […] CD3high, CD45dim, CD49b+ cells are reduced from—70 cells/microliter with DSP alone to—40 cells/microliter with 12.5 mg/kg venetoclax pretreatment, to—20 cells/microliter with 25 mg/kg venetoclax pretreatment, to—15 cells/microliter with 50 mg/kg venetoclax pretreatment. Venetoclax is a Bcl-2 inhibitor.

[10] = tested on: AVM-NKT cells; details: for Time after treatment at which AVM-NKT cells appear in peripheral blood: high doses of glucocorticoid receptor agonists
[11] = tested on: peripheral blood mononuclear cells or single cell splenocytes; experiment: In vitro apoptosis of mouse blood mononuclear cells and splenocytes; type: cell-based; details: up to 500 micromolar; out to 72 hours
Description: Mononuclear cells from peripheral blood of naïve male C57Bl/6 mice or single cell splenocytes were incubated with equivalent concentrations of AVM0703 as the peak blood concentrations of acute high dose AVM0703 achieve in vivo.
Blood and spleens were taken from naïve C57B16 mice. Mononuclear cells were isolated from blood and single cell splenocytes were isolated from the spleen. […] Therefore, the complete in vivo T and B lymphocyte ablation appears to be mediated by the AVM-NKT, and not a receptor based mechanism such as activation of a glucocorticoid receptor.

[12] = tested on: A20 cells; experiment: In vitro apoptosis of A20 cells; type: cell-based, mouse; details: 72 hours after high dose dexamethasone treatment in vitro
[13] = tested on: peripheral blood lymphocytes
Description: For initial lymphodepletion studies, naïve C57Bl/6 mice were treated with 18 mg/kg HED DP by oral gavage. Male C57BL/6 mice were obtained from Taconic Bioscience (Germantown, N.Y.) and acclimated to laboratory conditions for at least one week. […] When mice reached study timepoint, they were euthanized as follows. Mice were anesthetized with isoflurane gas. Once anesthetized, blood was drawn via cardiac puncture and place immediately in heparin-lined microtubes. 10 mL of 5 U/mL of Heparin/PBS was used for infused by slow push for retrograde perfusion via the abdominal aorta to flush out all remaining blood from the vasculature. […] The remaining blood was sent to Phoenix Labs (Mukilteo, Wash.) for Complete Blood Counts and Clinical Chemistries

[14] = pharmacodynamic (biologic) half-life; cited from earlier work
[15] = 18, 22, and 25 mg/kg pooled, n = 40
[16] = high-dose dexamethasone, naïve mice

C[C@@H]1C[C@H]2[C@@H]3CCC4=CC(=O)C=C[C@]4(C)[C@@]3(F)[C@@H](O)C[C@]2(C)[C@@]1(O)C(=O)CO [AVM0703, dexamethasone]
HistoTox Labs Necrosis H&E (0-5), Average ([1]; 18 mg/kg, n = 15): 2.7 n = 15
MetaMorph Area of Live Tumor, Average ([1]; 18 mg/kg, n = 18): 66^ n = 18 AU × 1000
MetaMorph Percent Necrotic, Average ([1]; 18 mg/kg, n = 18): 59 n = 18%
MetaMorph Area of Live Tumor, Average ([1]; 22 mg/kg, n = 11): 87 n = 11 AU × 1000
MetaMorph Percent Necrotic, Average ([1]; 22 mg/kg, n = 11): 53 n = 11%
MetaMorph Area of Live Tumor, Average ([1]; 25 mg/kg, n = 11): 77 n = 11 AU × 1000
MetaMorph Percent Necrotic, Average ([1]; 25 mg/kg, n = 11): 63 n = 11%
MetaMorph Area of Live Tumor, Average [1, 15]: 75 n = 40 AU × 1000
MetaMorph Percent Necrotic, Average [1, 15]: 59 n = 40%
Mice reaching the 20% body weight loss threshold ([2]; after 46 days and 8 doses, n=5): One mouse
Body weight ([2]; repeat 18 mg/kg HED DP dosing, up to 7 doses): Does Not Reduce Body Weight
Sudden deaths ([3]; 7, 18, 26 mg/kg): no sudden deaths
Spleen, thymus, colon, pancreas weights ([3]; 7, 18, 26 mg/kg, at euthanization): No significant differences
Additional median survival compared with placebo ([3]; 18 and 26 mg/kg, not significant): approximately 6 days
Tumor necrosis ([3]; A20-3 DRC, 18&26 mg/kg): 18&26 mg/kg 50-80% necrotic
Tumor resorbed ([4]; 1 mouse treated at 18 mg/kg): 99.5%
Overall complete response rate ([4]; both subsets of AVM_CANMOD_05): 9%
MetaMorph Area of Live Tumor ([4]; individual mice, 18 mg/kg): 27 AU × 1000
MetaMorph Percent Necrotic ([4]; individual mice, 18 mg/kg): 69%
Mice with significantly delayed onset ([5]; AVM0703 alone): 60%
Mice in which diabetes was prevented ([5]; AVM0703 alone, 5 month study): 40%
First Onset of hyperglycemia (weeks of age) [5]: 20 weeks of age
% Hyperglycemic at 22 wks of age [5]: 60%
Median Time to diabetes (days after 10 wks of age) [5]: 113 days
Body condition compared with all other groups ([5]; throughout the 5 month study): significantly better body condition
Body weight loss or poor body condition [6]: without the body weight loss or poor body condition
Glucose levels ([7]; 18 mg/kg HED, did not reach hypoglycemic levels): significantly reduced
Tumor weight, tumor example ([7]; 25 mg/kg, placebo example 0.54 g): 0.086 g
Tumor volume, tumor example ([7]; 25 mg/kg, placebo example 956 mm^3): 203.25 mm^3
Glucose levels ([7]; tumor model): not elevated
Day after tumor inoculation on which one mouse was found dead ([8]; 18 mg/kg weekly): 89 days
Tumor lysis ([8]; one treated mouse): Significant tumor lysis; also recorded: Evidence of Tumor Lysis Syndrome

CC1(C)CCC(CN2CCN(c3ccc(C(=O)NS(=O)(=O)c4ccc(NCC5CCOCC5)c([N+](=O)[O-])c4)c(Oc4cnc5[nH]ccc5c4)c3)CC2)=C(c2ccc(Cl)cc2)C1 [Venetoclax, venetoclax, reference compound]
CD3high, CD45dim, CD49b+ cells mobilized into the blood ([9]; 12.5 mg/kg venetoclax 6-18 hours before HED 30 mg/kg DSP): 40 cells/microliter
CD3high, CD45dim, CD49b+ cells mobilized into the blood ([9]; 25 mg/kg venetoclax 6-18 hours before HED 30 mg/kg DSP): 20 cells/microliter
CD3high, CD45dim, CD49b+ cells mobilized into the blood ([9]; 50 mg/kg venetoclax 6-18 hours before HED 30 mg/kg DSP): 15 cells/microliter
First Onset of hyperglycemia (weeks of age) [5]: 14 weeks of age
% Hyperglycemic at 22 wks of age [5]: 90%
Median Time to diabetes (days after 10 wks of age) [5]: 51 days

C[C@H]1C[C@H]2[C@@H]3CCC4=CC(=O)C=C[C@]4(C)[C@@]3(F)[C@@H](O)C[C@]2(C)[C@@]1(O)C(=O)CO [betamethasone]
Time after treatment at which AVM-NKT cells appear in peripheral blood [10]: around 48 hours

C[C@@H]1C[C@H]2[C@@H]3CCC4=CC(=O)C=C[C@]4(C)[C@@]3(F)[C@@H](O)C[C@]2(C)[C@@]1(O)C(=O)CO [dexamethasone base]
Induction of AVM-NKT cells (dose escalation) ([10]; 15 mg/kg HED): particularly robust production
Induction of AVM-NKT cells (dose escalation) ([10]; 6+6 mg/kg HED dosing schedule): particularly robust production
Induction of AVM-NKT cells (dose escalation) ([10]; single dose between 6-12 mg/kg HED): can induce AVM-NKT cells

C[C@@H]1C[C@H]2[C@@H]3CCC4=CC(=O)C=C[C@]4(C)[C@@]3(F)[C@@H](O)C[C@]2(C)[C@@]1(O)C(=O)COP(=O)(O)O [dexamethasone phosphate, reference compound]
Apoptosis [11]: no in vitro apoptosis was observed
Tumor CD3 expression (immunohistochemistry) ([3]; 7, 18, 25 mg/kg DP vs placebo): visually decreased
Tumor NKp46 staining ([3]; 7, 18, 25 mg/kg DP vs placebo): visual increase
HistoTox Labs Necrosis H&E (0-5) ([3]; individual tumors, 18 mg/kg, tumor 158 mm^3 at dosing): greatest degree of necrosis

C[C@@H]1C[C@H]2[C@@H]3CCC4=CC(=O)C=C[C@]4(C)[C@@]3(F)[C@@H](O)C[C@]2(C)[C@@]1(O)C(=O)CO [dexamethasone]
Apoptosis of A20 cells [12]: about 30%
Platelet numbers ([13]; 18 mg/kg HED DP): spared; also recorded: does not affect
Number of live hematopoietic stem cells ([13]; 18 mg/kg HED DP, 6 hours to 35 days): does not significantly alter
Basophils [13, 16]: reduced only at the 6 hour time point
Eosinophils [13, 16]: reduced only at the 24 and 48 hour time points
HSCs and MSCs [13, 16]: spared or increased
RBCs [13, 16]: spared
Time after treatment at which AVM-NKT cells appear in peripheral blood [10]: around 48 hours
Time to induction of AVM-NKT cells in the spleen ([10]; normal mice, after dexamethasone dosing): ≤ 48 h

C[C@]12C=CC(=O)C=C1CC[C@@H]1[C@@H]2C(=O)C[C@@]2(C)[C@H]1CC[C@]2(O)C(=O)CO [prednisone]
Biologic half-life [14]: about 20 hours
